What was measured:
Format in all cases: cell-based
Bacillus subtilis = assay: Zone Inhibition Assay; set-up: key: +++=large zone of inhibition; −=no zone of inhibition; details: 3 μL of a 10 μg/mL sample on a filter disc on a lawn of bacteria, arbitrary scale
Method: (§1) Inhibition of various bacteria by compound 1 (n=6, and n=4) are described in Table 2. The biological data were determined by a Zone Inhibition Assay method. The zone of inhibition was measured using an arbitrary scale: (+++=large zone of inhibition, −=no zone of inhibition). Compound 1 (n=6, and n=4) were tested by spotting 3 μL of a 10 μg/mL sample onto a filter disc which was placed on a lawn of bacteria. N.B. Compound 1 (n=8) was used as a positive control.

Staphylococcus aureus [1] = assay: Zone Inhibition Assay; set-up: key: +++=large zone of inhibition; −=no zone of inhibition; details: 3 μL of a 10 μg/mL sample on a filter disc on a lawn of bacteria, arbitrary scale
Method: as §1

Mycobacterium smegmatis = assay: Zone Inhibition Assay; set-up: key: +++=large zone of inhibition; −=no zone of inhibition; details: 3 μL of a 10 μg/mL sample on a filter disc on a lawn of bacteria, arbitrary scale
Method: as §1

Enterococcus faecalis = assay: Zone Inhibition Assay; set-up: key: +++=large zone of inhibition; −=no zone of inhibition; details: 3 μL of a 10 μg/mL sample on a filter disc on a lawn of bacteria, arbitrary scale
Method: as §1

M. fortuitum = assay: MIC by BACTEC or Mueller-Hinton agar method
Method: (§2) Inhibition of various bacteria by compound 1 (n=8) is described in Table 1. The biological data were determined by either the BACTEC or Mueller-Hinton agar method and expressed as a minimum inhibitory concentration (MIC).

Staphylococcus aureus [2] = assay: MIC by BACTEC or Mueller-Hinton agar method
Method: as §2

Nocardia asteroides = assay: MIC by BACTEC or Mueller-Hinton agar method
Method: as §2

Enterococci sp. = assay: MIC by BACTEC or Mueller-Hinton agar method
Method: as §2

[3] = system: Rapid Growing Atypical Mycobacterial Strains; assay: MIC by BACTEC or Mueller-Hinton agar method
Method: as §2

[4] = system: Mycobacterium tuberculosis; assay: MIC by BACTEC or Mueller-Hinton agar method
Method: as §2

M. avium intracellulare = assay: MIC by BACTEC or Mueller-Hinton agar method
Method: as §2

[5] = system: S. aureus (Coagulas-negative); assay: MIC by BACTEC or Mueller-Hinton agar method
Method: as §2

M. abscessus = assay: MIC by BACTEC or Mueller-Hinton agar method
Method: as §2

N. nova = assay: MIC by BACTEC or Mueller-Hinton agar method
Method: as §2

Row | Compound | Zone of Inhibition (Bacillus subtilis) | Zone of Inhibition (Staphylococcus aureus [1]) | Zone of Inhibition (Mycobacterium smegmatis) | Zone of Inhibition (Enterococcus faecalis) | MIC (M. fortuitum) | MIC (Staphylococcus aureus [2]) | MIC (Nocardia asteroides) | MIC (Enterococci sp.) | MIC [3] | MIC [4] | MIC (M. avium intracellulare) | MIC [5] | MIC (M. abscessus) | MIC (N. nova)
1 | CCCCCCCCN(CCCCCCCC)S[C@@H]1O[C@@H]([C@H](O)CO)[C@H](O)[C@H]1O [1 (n=6), N,N-Dioctyl-S-(1-thio-β-D-galactofuranosyl)sulfenamide] | +++ | +++ | +++ | +++ | – | – | – | – | – | – | – | – | – | –
2 | CCCCCCCCCCN(CCCCCCCCCC)S[C@@H]1O[C@@H]([C@H](O)CO)[C@H](O)[C@H]1O [Compound 1 (n=8), N,N-Didecyl-S-(1-thio-β-D-galactofuranosyl)sulfenamide] | – | – | – | – | <5 µg/mL | 5 to 50 µg/mL | <5 µg/mL | 5 to 50 µg/mL | <5 µg/mL | <5 µg/mL | <5 µg/mL | 5 to 50 µg/mL | <5 µg/mL | <5 µg/mL

From patent publication US20050124559A1, “Antimicrobial agent” (priority 2002, published 2005)
